From US11214594B2, “Antimicrobial peptide having synergistic antibacterial effect with antibiotics on multidrug resistant bacteria, and use thereof” (priority 2016, dated 2022)
In brackets after ≈: the same amount, converted by molar mass. Like-named read-outs stand apart in the source and are kept apart here. Where a SMILES comes first, the peptide text is derived from it.

Key:
[1] = tested on: E. coli; assay: MIC of antibiotic during combined treatment with antimicrobial peptide; type: cell-based, Escherichia coli; conditions: E. coli
How it was run: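 Antibiotic diluted in MH medium, dispensed per well with peptide; setup repeated with roles reversed; MIC read per combination.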

[2] = tested on: E. coli; assay: microbe, parasite or virus in culture; type: cell-based, Escherichia coli
How it was run: (§1)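 Peptides were serially diluted twofold in Mueller-Hinton medium and combined 1:1 with bacterial suspensions prepared at 2×10^6 CFU. Readout was the minimal inhibitory concentration, i.e. the lowest concentration with no growth.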

[3] = tested on: MDREC 1229; assay: microbe, parasite or virus in culture; type: cell-based, Escherichia coli
How it was run: as §1

[4] = tested on: B. subtilis; assay: microbe, parasite or virus in culture; type: cell-based, Bacillus subtilis
How it was run: as §1

[5] = tested on: MDREC 1229; assay: MIC of antibiotic during combined treatment with antimicrobial peptide; type: cell-based, Escherichia coli
How it was run: (§2)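 Antibiotic MIC came from antibiotic dilutions added to bacteria (2×10^6 CFU/ml, MH medium) already combined with peptide serially diluted 2:1 from its own MIC. Swapping the roles of the two agents gave the peptide MIC.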

[6] = tested on: MDRAB 12036; type: cell-based, Acinetobacter baumannii
How it was run: as §1

[7] = tested on: E. coli; type: cell-based, Escherichia coli; conditions: E. coli
How it was run: as §2

[8] = tested on: MDREC 1229; type: cell-based, Escherichia coli
How it was run: as §2

[9] = peptide treatment concentration 1 μg/ml
[10] = peptide treatment concentration 2 μg/ml
[11] = peptide treatment concentration 4 μg/ml
[12] = peptide treatment concentration 6 μg/ml
[13] = peptide treatment concentration 8 μg/ml
[14] = peptide treatment concentration 16 μg/ml
[15] = peptide treatment concentration 32 μg/ml
[16] = peptide treatment concentration 64 μg/ml
[17] = with Erythromycin […] (Conc./MIC 1)

## CC[C@H](C)[C@H](NC(=O)[C@H](CCCCN)NC(=O)[C@H](Cc1c[nH]c2ccccc12)NC(=O)[C@@H](N)CCCNC(=N)N)C(=O)N[C@@H](Cc1ccccc1)C(=O)N[C@@H](CCCCN)C(=O)N[C@@H](CCCCN)C(=O)N[C@H](C(=O)N1CCC[C@H]1C(=O)N[C@@H](CCCCN)C(=O)N[C@@H](CC(C)C)C(=O)N[C@@H](CC(C)C)C(=O)N[C@@H](Cc1c[nH]cn1)C(=O)N[C@@H](CO)C(=O)N[C@@H](CC(C)C)C(=O)N[C@@H](CCCCN)C(=O)N[C@@H](CCCCN)C(=O)N[C@@H](Cc1c[nH]c2ccccc12)C(N)=O)[C@@H](C)CC [PapMA-10, RWK IFK KIP KLL HSL KKW-NH2] (H-RWKIFKKIPKLLHSLKKW-NH2; N-terminus assumed)
[1]; erythromycin combined with peptide at 6 μg/ml
  Antibiotic MIC, Erythromycin: 8 µg/mL
[1]; erythromycin combined with peptide at 8 μg/ml
  Antibiotic MIC, Erythromycin: 0.5 µg/mL
[1]; erythromycin combined with peptide at 16 μg/ml
  Antibiotic MIC, Erythromycin: 0.25 µg/mL
[1]; erythromycin combined with peptide at 32 μg/ml
  Antibiotic MIC, Erythromycin: 0 µg/mL
[1]; erythromycin combined with peptide at 64 μg/ml
  Antibiotic MIC, Erythromycin: 0 µg/mL
[1]; linezolid combined with peptide at 1 μg/ml
  Antibiotic MIC, Linezolid: >128 µg/mL
[1]; linezolid combined with peptide at 2 μg/ml
  Antibiotic MIC, Linezolid: >128 µg/mL
[1]; linezolid combined with peptide at 4 μg/ml
  Antibiotic MIC, Linezolid: 128 µg/mL
[1]; linezolid combined with peptide at 6 μg/ml
  Antibiotic MIC, Linezolid: 64 µg/mL
[1]; linezolid combined with peptide at 8 μg/ml
  Antibiotic MIC, Linezolid: 8 µg/mL
[1]; linezolid combined with peptide at 16 μg/ml
  Antibiotic MIC, Linezolid: 4 µg/mL
[1]; linezolid combined with peptide at 32 μg/ml
  Antibiotic MIC, Linezolid: 0 µg/mL
[1]; linezolid combined with peptide at 64 μg/ml
  Antibiotic MIC, Linezolid: 0 µg/mL
[1]; vancomycin combined with peptide at 1 μg/ml
  Antibiotic MIC, Vancomycin: >128 µg/mL
[1]; vancomycin combined with peptide at 2 μg/ml
  Antibiotic MIC, Vancomycin: >128 µg/mL
[1]; vancomycin combined with peptide at 4 μg/ml
  Antibiotic MIC, Vancomycin: 64 µg/mL
[1]; vancomycin combined with peptide at 6 μg/ml
  Antibiotic MIC, Vancomycin: 32 µg/mL
[1]; vancomycin combined with peptide at 8 μg/ml
  Antibiotic MIC, Vancomycin: 16 µg/mL
[1]; vancomycin combined with peptide at 16 μg/ml
  Antibiotic MIC, Vancomycin: 2 µg/mL
[1]; vancomycin combined with peptide at 32 μg/ml
  Antibiotic MIC, Vancomycin: 0 µg/mL
[1]; vancomycin combined with peptide at 64 μg/ml
  Antibiotic MIC, Vancomycin: 0 µg/mL
[2]; 16 h
  Minimal inhibitory concentration MIC: 32 µg/mL (≈ 13.6 µM)
[2]; E. coli
  Antibacterial activity relative to PapMA-1: at least twice as high
[3]
  Minimal inhibitory concentration MIC: 64 µg/mL (≈ 27.2 µM)
[4]
  Minimal inhibitory concentration MIC: >128 µg/mL
[5]; [9]
  Antibiotic MIC, Erythromycin: >128 µg/mL
  Antibiotic MIC, Linezolid: >128 µg/mL
  Antibiotic MIC, Vancomycin: >128 µg/mL
[5]; [10]
  Antibiotic MIC, Erythromycin: 64 µg/mL
  Antibiotic MIC, Linezolid: >128 µg/mL
  Antibiotic MIC, Vancomycin: >128 µg/mL
[5]; [11]
  Antibiotic MIC, Erythromycin: 16 µg/mL
  Antibiotic MIC, Linezolid: 128 µg/mL
  Antibiotic MIC, Vancomycin: >128 µg/mL
[5]; [12]
  Antibiotic MIC, Erythromycin: 8 µg/mL
  Antibiotic MIC, Linezolid: 64 µg/mL
  Antibiotic MIC, Vancomycin: >128 µg/mL
[5]; [13]
  Antibiotic MIC, Erythromycin: 2 µg/mL
  Antibiotic MIC, Linezolid: 64 µg/mL
  Antibiotic MIC, Vancomycin: 128 µg/mL
[5]; [14]
  Antibiotic MIC, Erythromycin: 1 µg/mL
  Antibiotic MIC, Linezolid: 16 µg/mL
  Antibiotic MIC, Vancomycin: 32 µg/mL
[5]; [15]
  Antibiotic MIC, Erythromycin: 0.25 µg/mL
  Antibiotic MIC, Linezolid: 8 µg/mL
  Antibiotic MIC, Vancomycin: 16 µg/mL
[5]; [16]
  Antibiotic MIC, Erythromycin: 0 µg/mL
  Antibiotic MIC, Linezolid: 0 µg/mL
  Antibiotic MIC, Vancomycin: 0 µg/mL
[6]
  Minimal inhibitory concentration MIC: 32 µg/mL (≈ 13.6 µM)
[7]; [17]
  Peptide MIC: 0 µg/mL
[7]; with Linezolid […] (Conc./MIC 1)
  Peptide MIC: 0 µg/mL
[7]; with Vancomycin 1024 μg/ml (Conc./MIC 1)
  Peptide MIC: 0 µg/mL
[8]; [17]
  Peptide MIC: 0 µg/mL
[8]; with Linezolid 512 μg/ml (Conc./MIC 1)
  Peptide MIC: 0 µg/mL
